# Measurements from patent US20240043384A1, “INHIBITORS OF PU.1 FOR THE TREATMENT OF DISEASE” (Board of Regents, The University of Texas System, priority 2021, published 2024).
# Test system: THP-1 CD14
# Assay: THP-1 CD14 Screening Assay
# Format: cell-based
# Conditions: Homo sapiens, THP-1, 72 h, THP-1 cells treated with PMA and compound (5-point 10-fold dilution), human CD14 ELISA on media
# Protocol: THP-1 CD14 Screening Assay Protocol:
# 5×10^4 THP-1 cells were plated per well in a tissue culture-treated 96-well plate. At the time of plating, cells were treated with a final concentration of […] PMA and 0.04% DMSO vehicle, concominant with compounds in a 5-point 10-fold dilution per compound. Cells were treated with PMA and DMSO as a control for differentiation without compound treatment, and with only DMSO as a control for no differentiation and no compound treatment. 500 nM IACS-71432 was added as a control compound across all assay plates.
# After incubation at 37° C./5% CO2 for 72 hr, media was collected from the cells and the screening assay was performed using the commercially-available human CD14 SimpleStep ELISA kit from Abcam, according to the following protocol: • 1) ELISA kits were taken out to equilibrate to rt. • 2) Following the protocol listed in the kit, standards were prepared as 1:1 dilutions from 2 ng/ml. • 3) Following the protocol listed in the kit, antibody cocktail was prepared (the volume is contingent on the number of wells required). • 4) 50 μl of standards were added to the appropriate wells, thoroughly mizing the standards before adding to each well. • 5) 25 μl of Sample Diluent (from kit) was added to all sample wells. • 6) Cell plates were centrifuged for 5 min at 300 rcf, with slow acceleration and slow deceleration. • 7) 25 μl of media from cell plates was transferred to assay plates containing standards. • 8) 50 μl of antibody cocktail was added to all of the wells, standards and samples. • 9) Assay plates were sealed tightly and incubated on the plate shaker at 400 rpm for 1 hr at rt. • 10) Wash buffer was prepared following the protocol listed in the kit. • 11) After the hour incubation, assay plates were washed 5 times using 200 μl wash buffer per well per wash. • 12) 100 μl of TMB substrate was added to each well in the dark and incubated on the shaker for 3-4.min, at which point color development was monitored to ensure a robust signal for detection but to avoid oversaturation of signal, for no longer than 10 min. • 13) The absorbance at 607 nm was read on a Perkin Elmer Envision plate reader. • 14) Data was processed using Microsoft Excel and GraphPad Prism.
row,Structure (SMILES),IC50
1,"O=S(=O)(NCc1ccncc1)c1ccc(C2=CCCC2)cc1 [Example 1, 4-(Cyclopent-1-en-1-yl)-N-(pyridin-4-ylmethyl)benzenesulfonamide]",5 to 100 nM
2,"O=S(=O)(NCc1ccncc1)c1ccc(C2CCCC2)cc1 [Example 2, 4-cyclopentyl-N-(pyridin-4-ylmethyl)benzenesulfonamide]",< 5 nM
3,"CN1CCN(c2ccc(S(=O)(=O)NCc3ccncc3)cc2)CC1 [Example 3, 4-(4-methylpiperazin-1-yl)-N-(pyridin-4-ylmethyl)benzenesulfonamide]",100 to 500 nM
4,"O=S(=O)(NCc1ccncc1)c1ccc(-c2cccnc2)cc1 [Example 4, 4-(pyridin-3-yl)-N-(pyridin-4-ylmethyl)benzenesulfonamide]",100 to 500 nM
5,"O=S(=O)(NCc1ccncc1)c1ccc(-c2cccc(Cl)n2)cc1 [Example 5, 4-(6-chloropyridin-2-yl)-N-(pyridin-4-ylmethyl)benzenesulfonamide]",100 to 500 nM
6,"O=S(=O)(Nc1cccc2cnccc12)c1ccc(C2CCCCC2)cc1 [Example 6, 4-Cyclohexyl-N-(isoquinolin-5-yl)benzenesulfonamide]",< 5 nM
7,"O=S(=O)(Nc1cccc2cnccc12)c1ccc(C2CCOCC2)cc1 [Example 7, N-(Isoquinolin-5-yl)-4-(tetrahydro-2H-pyran-4-yl)enzenesulfonamide]",< 5 nM
8,"O=S(=O)(NCc1ccnc(F)c1)c1ccc(C2CCCCC2)cc1 [Example 8, 4-cyclohexyl-N-((2-fluoropyridin-4-yl)methyl)benzenesulfonamide]",< 5 nM
9,"Nc1cc(CNS(=O)(=O)c2ccc(C3CCCCC3)cc2)ccn1 [Example 9, N-((2-aminopyridin-4-yl)methyl)-4-cyclohexylbenzenesulfonamide]",< 5 nM
10,"CC(=O)Nc1cc(CNS(=O)(=O)c2ccc(C3CCCCC3)cc2)ccn1 [Example 10, N-(4-(((4-cyclohexylphenyl)sulfonamido)methyl)pyridin-2-yl)acetamide]",5 to 100 nM
11,"O=S(=O)(NCc1ccncc1)c1ccc(OCC2CCCO2)cc1 (centres unmarked) [Example 11, N-(pyridin-4-ylmethyl)-4-((tetrahydrofuran-2-yl)methoxy)benzenesulfonamide]",< 5 nM
12,"O=S(=O)(NCc1ccncc1)c1ccc(C2=CCOCC2)cc1 [Example 12, 4-(3,6-dihydro-2H-pyran-4-yl)-N-(pyridin-4-ylmethyl)-benzenesulfonamide]",5 to 100 nM
13,"CN1CC=C(c2ccc(S(=O)(=O)NCc3ccncc3)cc2)CC1 [Example 13, 4-(1-methyl-1,2,3,6-tetrahydropyridin-4-yl)-N-(pyridin-4-ylmethyl)-benzenesulfonamide]",100 to 500 nM
14,"O=S(=O)(NCc1ccncc1)c1ccc(C2=CCC(F)(F)CC2)cc1 [Example 14, 4′,4′-difluoro-N-(pyridin-4-ylmethyl)-2′,3′,4′,5′-tetrahydro-[1,1′-biphenyl]-4-sulfonamide]",< 5 nM
15,"O=S(=O)(NCc1ccncc1)c1ccc(C2CCC(F)(F)CC2)cc1 [Example 15, 4-(4,4-difluorocyclohexyl)-N-(pyridin-4-ylmethyl)-benzenesulfonamide]",< 5 nM
16,"O=S(=O)(NCc1ccncc1)c1ccc(C2CCOCC2)cc1 [Example 16, N-(pyridin-4-ylmethyl)-4-(tetrahydro-2H-pyran-4-yl)-benzenesulfonamide]",< 5 nM
17,"O=S(=O)(NCc1ccncc1)c1ccc(C2CCCOC2)cc1 (centres unmarked) [Example 17, N-(pyridin-4-ylmethyl)-4-(tetrahydro-2H-pyran-3-yl)-benzenesulfonamide]",< 5 nM
18,"O=S1(=O)CCC(c2ccc(S(=O)(=O)NCc3ccncc3)cc2)CC1 [Example 18, 4-(1,1-dioxotetrahydro-2H-thiopyran-4-yl)-N-(pyridin-4-ylmethyl)-benzenesulfonamide]",> 500 nM
19,"O=S(=O)(NCc1ccncc1)c1ccc(C2CCOC2)cc1 (centres unmarked) [Example 19, N-(pyridin-4-ylmethyl)-4-(tetrahydrofuran-3-yl)-benzenesulfonamide]",5 to 100 nM

row,Structure (SMILES),IC50
1,"CC1(C)CCC(c2ccc(S(=O)(=O)NCc3ccncc3)cc2)CC1 [Example 20, 4-(4,4-dimethyl-cyclohexyl)-N-(pyridin-4-ylmethyl) benzenesulfonamide]",< 5 nM
2,"CC(=O)N1CCC(c2ccc(S(=O)(=O)NCc3ccncc3)cc2)C1 (centres unmarked) [Example 21, 4-(1-acetylpyrrolidin-3-yl)-N-(pyridin-4-ylmethyl)-benzenesulfonamide]",> 500 nM
3,"O=S(=O)(NCc1ccncc1)c1ccc(N2CCCCC2)cc1 [Example 22, 4-(piperidin-1-yl)-N-(pyridin-4-ylmethyl)-benzenesulfonamide]",5 to 100 nM
4,"O=S(=O)(NCc1ccncc1)c1ccc(N2CCC(F)(F)CC2)cc1 [Example 23, 4-(4,4-difluoropiperidin-1-yl)-N-(pyridin-4-ylmethyl)-benzenesulfonamide]",5 to 100 nM
5,"O=S(=O)(NCc1ccncc1)c1ccc(N2CCOCC2)cc1 [Example 24, 4-morpholino-N-(pyridin-4-ylmethyl)benzenesulfonamide]",100 to 500 nM
6,"O=S(=O)(NCc1ccncc1)c1ccc(N2CCCC2)cc1 [Example 25, N-(pyridin-4-ylmethyl)-4-(pyrrolidin-1-yl)benzenesulfonamide]",5 to 100 nM
7,"CC1(C)CCN(c2ccc(S(=O)(=O)NCc3ccncc3)cc2)C1 [Example 26, 4-(3,3-dimethylpyrrolidin-1-yl)-N-(pyridin-4-yl-methyl)benzenesulfonamide]",5 to 100 nM
8,"O=S(=O)(NCc1ccncc1)c1ccc(N2CCCC(F)(F)C2)cc1 [Example 27, 4-(3,3-difluoropiperidin-1-yl)-N-(pyridin-4-ylmethyl)-benzenesulfonamide]",5 to 100 nM
9,"CC1CCN(c2ccc(S(=O)(=O)NCc3ccncc3)cc2)C1 (centres unmarked) [Example 28, 4-(3-methylpyrrolidin-1-yl)-N-(pyridin-4-ylmethyl)-benzenesulfonamide]",5 to 100 nM
10,"O=S(=O)(NCc1ccncc1)c1ccc(N2CCC(F)(F)C2)cc1 [Example 29, 4-(3,3-difluoropyrrolidin-1-yl)-N-(pyridin-4-ylmethyl)-benzenesulfonamide]",5 to 100 nM
11,"O=S(=O)(NCc1ccncc1)c1ccc(N2CCCC(F)C2)cc1 (centres unmarked) [Example 30, 4-(3-fluoropiperidin-1-yl)-N-(pyridin-4-ylmethyl)-benzenesulfonamide]",5 to 100 nM
12,"CC1(C)CN(c2ccc(S(=O)(=O)NCc3ccncc3)cc2)C1 [Example 32, 4-(3,3-dimethylazetidin-1-yl)-N-[(pyridin-4-yl)methyl]benzene-1-sulfonamide]",5 to 100 nM
13,"O=S(=O)(NCc1ccncc1)c1ccc(N2CC3(CCC3)C2)cc1 [Example 33, N-(pyridin-4-ylmethyl)-4-(2-azaspiro[3.3]heptan-2-yl)benzenesulfonamide]",5 to 100 nM
14,"O=S(=O)(NCc1ccncc1)c1ccc(N2CC3(C2)CC(F)(F)C3)cc1 [Example 34, 4-(6,6-difluoro-2-azaspiro[3.3]heptan-2-yl)-N-(pyridin-4-ylmethyl)-benzenesulfonamide]",5 to 100 nM
15,"O=S(=O)(NCc1ccncc1)c1ccc(N2CCC3(CC2)CC3)cc1 [Example 35, N-(pyridin-4-ylmethyl)-4-(6-azaspiro[2.5]octan-6-yl)-benzenesulfonamide]",< 5 nM
16,"CC1(C)CCN(c2ccc(S(=O)(=O)NCc3ccncc3)cc2)CC1 [Example 36, 4-(4,4-dimethylpiperidin-1-yl)-N-(pyridin-4-ylmethyl)-benzenesulfonamide]",< 5 nM
17,"O=S(=O)(NCc1ccncc1)c1ccc(-c2ccccc2)cc1 [Example 37, N-(pyridin-4-ylmethyl)-[1,1′-biphenyl]-4-sulfonamide]",< 5 nM
18,"O=S(=O)(NCc1ccncc1)c1ccc(-c2ccncc2)cc1 [Example 38, 4-(pyridin-4-yl)-N-(pyridin-4-ylmethyl)benzenesulfonamide]",5 to 100 nM
19,"Cc1cnccc1-c1ccc(S(=O)(=O)NCc2ccncc2)cc1 [Example 39, 4-(3-methylpyridin-4-yl)-N-(pyridin-4-ylmethyl)-benzenesulfonamide]",< 5 nM

# Same assay, conditions: THP-1 cells treated with PMA and compound (5-point 10-fold dilution), 72 hr; human CD14 ELISA on media
row,Structure (SMILES),IC50
1,"Cc1nc2cc(-c3ccc(S(=O)(=O)NCc4ccncc4)cc3)ccc2s1 [49 (a), 4-(2-methyl-benzo[d]thiazol-5-yl)-N-(pyridin-4-ylmethyl)-benzenesulfonamide]",< 5 nM
2,"Cc1nc2cc(-c3ccc(S(=O)(=O)NCc4ccncc4)cc3)ccc2s1 [49 (b), 4-(2-methyl-benzo[d]thiazol-5-yl)-N-(pyridin-4-ylmethyl)-benzenesulfonamide]",100 to 500 nM
3,"O=S(=O)(NCc1ccncc1)c1ccc(N2CCCC(F)(F)C2)cc1 [Example 31, 4-(3,3-difluoropiperidin-1-yl)-N-(pyridin-4-ylmethyl)-benzenesulfonamide]",< 5 nM
